In brackets after ≈: the same amount, converted by molar mass. Several values for one entry are separate records, joined by “and”; a condition that tells them apart may be missing. Equal values may be shown once. Where a name gives a salt, the structure may show the parent alone. Read-outs that look alike come from different tables or passages of the source.
Tests used:
[1] = Surface tension, pendant drop tensiometer (cmc, γc); type: physicochemical; details: for cmc: from surface tension
Method: Surface tension was measured using a custom-built pendant drop tensiometer, as described in detail in reference. Briefly, a droplet of surfactant solution is formed at the tip of a straight-cut Teflon tube. The image of the droplet is captured using a webcam, and its shape is analyzed by fitting the droplet profile to the Laplace–Young equation [14], To minimize evaporation, all measurements were conducted in a saturated humid atmosphere. The use of this technique is especially well-suited for cationic surfactants because it helps to mitigate complications related to surface adsorption. Critical micelle concentration values (cmc) were determined by finding the intersection of the linear fits before and after the break in the curves.

[2] = system: Candida albicans ATCC 90028; assay: MIC broth microdilution; type: cell-based; details: C. albicans; for MIC: Candida albicans, ATCC90028, read-out: MIC
In short: (§1)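 Broth microdilution in RPMI 1640, twofold compound dilutions 256–2 μg/mL, final inoculum 7.5 × 10^5 CFU/mL from Sabouraud-grown colonies. MIC read by turbidity and confirmed by 0.015% resazurin, 3 h at 30 °C, blue-to-pink colour change.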

Candida auris ATCC 21092 = assay: MIC broth microdilution; type: cell-based; details: C. auris; for MIC: Candidozyma auris, ATCC21092, read-out: MIC
In short: as §1

[3] = system: Candida glabrata ATCC 66032; assay: MIC broth microdilution; type: cell-based; details: for MIC: Nakaseomyces glabratus, read-out: MIC
In short: as §1

[4] = system: Candida parapsilosis ATCC 22019; assay: MIC broth microdilution; type: cell-based; details: C. parapsilosis; for MIC: Lodderomyces parapsilosis, ATCC22019, read-out: MIC
In short: as §1

[5] = system: Candida rugosa ATCC 10571; assay: MIC broth microdilution; type: cell-based; details: C. rugosa; for MIC: Diutina rugosa, ATCC10571, read-out: MIC
In short: as §1

[6] = system: Candida tropicalis ATCC 7349; assay: MIC broth microdilution; type: cell-based; details: C. tropicalis; for MIC: Candida tropicalis, ATCC7349, read-out: MIC
In short: as §1

[7] = system: Cyberlindnera jadinii ATCC 60459 (C. jardinii); assay: MIC broth microdilution; type: cell-based; details: for Selectivity Index (HC50/MIC): C. jardini; for MIC: Williopsis jadinii
In short: as §1

erythrocytes = assay: Hemolytic activity assay; type: cell-based; details: rabbit erythrocytes
In short: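 Rabbit erythrocytes washed in PBS pH 7.4, exposed to varying surfactant concentrations in PBS for 10 min at room temperature. Hemolysis read as supernatant absorbance at 540 nm relative to distilled-water 100% lysis control; HC50 taken from concentration–response curves.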

Daphnia magna = assay: Acute toxicity, immobilization test; type: in vivo; details: Daphnia magna, 48 h
In short: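 Neonates under 24 h old exposed in the dark at 20 °C, pH 8.0, Ca:Mg 4:1, hardness 250 mg/L as CaCO3, to ten geometric concentrations, 4 replicates of 5 animals. Immobility (no swimming after 15 s gentle stimulation) scored at 48 h; immobilization plotted against concentration on probability–log scale.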

Vibrio fischeri = assay: Luminescence reduction test; type: cell-based; details: Aliivibrio fischeri, 0.25 h; Vibrio fischeri bioluminescence, 15 min of exposure; 95% confidence intervals in parentheses
Method: Ecotoxicological assessment of cationic surfactants was conducted using the Vibrio fischeri luminescent bioassay. This method relies on the measurement of decreased bioluminescent output from marine bacteria following contact with potentially toxic substances. Regression analysis was used to determine the concentration of the compound that caused a 50% reduction (EC50) in the amount of light emitted by the bacteria. The stated toxicity statistics given are based on the bacteria being exposed to the ionic liquid solution for 15 min at 15 °C.

[8] = parameters: method as in PMID 36559096; details: conductivity values; cited from earlier work
[9] = ATCC66032, 24 h, C. glabrata, RPMI 1640, 24 h, 30 °C
[10] = ATCC66032, C. glabrata, value in parentheses
[11] = ATCC60459, C. jardinii, RPMI 1640, 24 h, 30 °C, read-out: MIC
[12] = ATCC60459, C. jardinii, value in parentheses, read-out: MIC

With CCCCCCCCCCNC(=O)C(CCCNC(=N)N)NC(=O)C(N)Cc1c[nH]c2ccccc12 (stereo not shown) [TANHC10] the “γc (surface tension at the cmc)” value [1] was 30.6 ± 2.0 mNm^−1, the cmc [1] was 5.4 mM and the “Selectivity Index (HC50/MIC)” value ([2]; Table S2) was 1.15. For the same compound, the MIC ([2]; RPMI 1640, 24 h, 30 °C) was 64 µg/mL, the MIC ([2]; value in parentheses) was 112 µM and the “Selectivity Index (HC50/MIC)” value (Candida auris ATCC 21092; Table S2) was 0.6. For the same compound, the MIC (Candida auris ATCC 21092; RPMI 1640, 24 h, 30 °C) was 128 µg/mL, the MIC (Candida auris ATCC 21092; value in parentheses) was 224 µM and the “Selectivity Index (HC50/MIC)” value ([3]; C. glabrata, Table S2) was 1.15. The MIC [3, 9] was 64 µg/mL, the MIC [3, 10] was 112 µM and the “Selectivity Index (HC50/MIC)” value ([4]; Table S2) was 1.15. The MIC ([4]; RPMI 1640, 24 h, 30 °C) was 64 µg/mL, the MIC ([4]; value in parentheses) was 112 µM and the “Selectivity Index (HC50/MIC)” value ([5]; Table S2) was 18. For the same compound, the MIC ([5]; RPMI 1640, 24 h, 30 °C) was 4 µg/mL, the MIC ([5]; value in parentheses) was 7 µM and the “Selectivity Index (HC50/MIC)” value ([6]; Table S2) was 1.15. The MIC ([6]; RPMI 1640, 24 h, 30 °C) was 64 µg/mL, the MIC ([6]; value in parentheses) was 112 µM and the “Selectivity Index (HC50/MIC)” value ([7]; Table S2) was 1.15. It also gave an MIC [7, 11] of 64 µg/mL, an MIC [7, 12] of 112 µM and an HC50 (erythrocytes; 10 min, room temperature) of 74 ± 2.8 µg/mL. For the same compound, the HC50 (erythrocytes; value in parentheses) was 129 ± 5 µM, the EC50 (Daphnia magna) was 9.7 µg/mL (≈ 19.4 µM) and the EC50 (Vibrio fischeri) was 2.2 µg/mL (≈ 4.4 µM). For the same compound, the “cmc Cond” value [8] was 1.7 mM.
In the case of CCCCCCCCCCNC(=O)C(CCCNC(=N)N)NC(=O)C(N)Cc1ccccc1 (stereo not shown) [PANHC10], the “γc (surface tension at the cmc)” value [1] is reported as 30.6 ± 9.7 mNm^−1, the cmc [1] is reported as 6.7 mM and the “Selectivity Index (HC50/MIC)” value ([2]; Table S2) is reported as 1.6. The MIC ([2]; RPMI 1640, 24 h, 30 °C) was 128 µg/mL, the MIC ([2]; value in parentheses) was 240 µM and the “Selectivity Index (HC50/MIC)” value (Candida auris ATCC 21092; Table S2) was 0.8. The MIC (Candida auris ATCC 21092; RPMI 1640, 24 h, 30 °C) was 256 µg/mL, the MIC (Candida auris ATCC 21092; value in parentheses) was 480 µM and the “Selectivity Index (HC50/MIC)” value ([3]; C. glabrata, Table S2) was 3.7. The MIC [3, 9] was 64 µg/mL, the MIC [3, 10] was 120 µM and the “Selectivity Index (HC50/MIC)” value ([4]; Table S2) was 3.7. The MIC ([4]; RPMI 1640, 24 h, 30 °C) was 64 µg/mL, the MIC ([4]; value in parentheses) was 120 µM and the “Selectivity Index (HC50/MIC)” value ([5]; Table S2) was 1.6. The MIC ([5]; RPMI 1640, 24 h, 30 °C) was 128 µg/mL, the MIC ([5]; value in parentheses) was 240 µM and the “Selectivity Index (HC50/MIC)” value ([6]; Table S2) was 1.6. The MIC ([6]; RPMI 1640, 24 h, 30 °C) was 128 µg/mL, the MIC ([6]; value in parentheses) was 240 µM and the “Selectivity Index (HC50/MIC)” value ([7]; Table S2) was 1.6. It also gave an MIC [7, 11] of 128 µg/mL, an MIC [7, 12] of 240 µM and an HC50 (erythrocytes; 10 min, room temperature) of 215 ± 22 µg/mL. For the same compound, the HC50 (erythrocytes; value in parentheses) was 404 ± 42 µM, the EC50 (Daphnia magna) was 22 µg/mL (≈ 47.8 µM) and the EC50 (Vibrio fischeri) was 5.6 µg/mL (≈ 12.2 µM). For the same compound, the “cmc Cond” value [8] was 7.2 mM.
For CCCCCCCCCCCCNC(=O)C(CCCNC(=N)N)NC(=O)C(N)Cc1ccccc1 (stereo not shown) [PANHC12, phenylalanine-arginine dodecyl amide dihydrochloride], the “γc (surface tension at the cmc)” value [1] was 30.4 ± 2.6 mNm^−1, the cmc [1] was 1.5 mM and the “Selectivity Index (HC50/MIC)” value ([2]; Table S1) was 0.8. For the same compound, the “Selectivity Index (HC50/MIC)” value ([2]; Table S2) was 0.8, the MIC ([2]; RPMI 1640, 24 h, 30 °C) was 32 µg/mL and the MIC ([2]; value in parentheses) was 56 µM. For the same compound, the “Selectivity Index (HC50/MIC)” value (Candida auris ATCC 21092; Table S1) was 0.4, the “Selectivity Index (HC50/MIC)” value (Candida auris ATCC 21092; Table S2) was 0.4 and the MIC (Candida auris ATCC 21092; RPMI 1640, 24 h, 30 °C) was 64 µg/mL. The MIC (Candida auris ATCC 21092; value in parentheses) was 112 µM, the “Selectivity Index (HC50/MIC)” value ([3]; C. glabrata, Table S1) was 0.8 and the “Selectivity Index (HC50/MIC)” value ([3]; C. glabrata, Table S2) was 0.8. For the same compound, the MIC [3, 9] was 32 µg/mL, the MIC [3, 10] was 56 µM and the “Selectivity Index (HC50/MIC)” value ([4]; Table S1) was 0.8. For the same compound, the “Selectivity Index (HC50/MIC)” value ([4]; Table S2) was 0.8, the MIC ([4]; RPMI 1640, 24 h, 30 °C) was 32 µg/mL and the MIC ([4]; value in parentheses) was 56 µM. For the same compound, the “Selectivity Index (HC50/MIC)” value ([5]; Table S1) was 0.4, the “Selectivity Index (HC50/MIC)” value ([5]; Table S2) was 0.4 and the MIC ([5]; RPMI 1640, 24 h, 30 °C) was 64 µg/mL. For the same compound, the MIC ([5]; value in parentheses) was 112 µM, the “Selectivity Index (HC50/MIC)” value ([6]; Table S1) was 0.8 and the “Selectivity Index (HC50/MIC)” value ([6]; Table S2) was 0.8. The MIC ([6]; RPMI 1640, 24 h, 30 °C) was 32 µg/mL, the MIC ([6]; value in parentheses) was 56 µM and the “Selectivity Index (HC50/MIC)” value ([7]; Table S1) was 0.8. The “Selectivity Index (HC50/MIC)” value ([7]; Table S2) was 0.8, the MIC ([7]; ATCC60459, 24 h) was 32 µg/mL and 88 µM and the MIC [7, 12] was 56 µM. The HC50 (erythrocytes; 10 min, room temperature) was 26 ± 1.2 µg/mL, the HC50 (erythrocytes; value in parentheses) was 46 ± 2.2 µM and the EC50 (Daphnia magna) was 3.4 µg/mL. The EC50 (Vibrio fischeri) was 3 µg/mL and the “cmc Cond” value [8] was 2.2 mM.
